target: Serine protease 1 (Homo sapiens, UniProt P07477); assay: Concentration required for the in vitro inhibitory activity against human enzyme, trypsin cleavage of the chromogenic substrate
Sequence (P07477 whole entry): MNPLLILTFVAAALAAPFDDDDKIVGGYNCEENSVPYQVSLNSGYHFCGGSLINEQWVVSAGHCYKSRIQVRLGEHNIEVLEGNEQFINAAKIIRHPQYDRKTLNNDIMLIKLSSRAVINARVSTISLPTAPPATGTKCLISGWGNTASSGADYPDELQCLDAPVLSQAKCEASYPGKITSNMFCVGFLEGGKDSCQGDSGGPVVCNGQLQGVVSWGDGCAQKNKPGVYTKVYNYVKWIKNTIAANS

| Structure (SMILES) | IC50 [nM] |
| --- | --- |
| CS(=O)(=O)Nc1c(CCC2CCCCC2)ccn(CC(=O)N[C@H]2CCCN(C(=N)N)C2O)c1=O (some centres not stated) | 257 |
| CS(=O)(=O)Nc1c(CCCc2ccccc2)ccn(CC(=O)N[C@H]2CCCN(C(=N)N)C2O)c1=O (some centres not stated) | 479 |
| N=C(N)N1CCC[C@H](NC(=O)CN2CCCC(NS(=O)(=O)Cc3ccccc3)C2=O)C1O (some centres not stated) | 791 |
| CC(=O)Nc1c(CCc2ccccc2)ccn(CC(=O)N[C@H]2CCCN(C(=N)N)C2O)c1=O (some centres not stated) | 1220 |
| CNS(=O)(=O)Nc1c(CCc2ccccc2)ccn(CC(=O)N[C@H]2CCCN(C(=N)N)C2O)c1=O (some centres not stated) | 103 |
| N=C(N)N1CCC[C@H](NC(=O)Cn2ccc(CCc3ccccc3)c(NS(=O)(=O)c3ccccc3)c2=O)C1O (some centres not stated) | 188 |
| CS(=O)(=O)Nc1c(CCc2ccccc2)ccn(CC(=O)N[C@H]2CCCN(C(=N)N)C2O)c1=O (some centres not stated) | 135 |
| N=C(N)N1CCC[C@H](NC(=O)Cn2ccc(CCc3ccccc3)c(NS(=O)(=O)CC(F)(F)F)c2=O)C1O (some centres not stated) | 1220 |

target: Plasminogen (Homo sapiens, UniProt P00747); assay: Concentration required for the in vitro inhibitory activity against human enzyme, Plasmin cleavage of the chromogenic substrate
Sequence (P00747 97-580 limits assumed): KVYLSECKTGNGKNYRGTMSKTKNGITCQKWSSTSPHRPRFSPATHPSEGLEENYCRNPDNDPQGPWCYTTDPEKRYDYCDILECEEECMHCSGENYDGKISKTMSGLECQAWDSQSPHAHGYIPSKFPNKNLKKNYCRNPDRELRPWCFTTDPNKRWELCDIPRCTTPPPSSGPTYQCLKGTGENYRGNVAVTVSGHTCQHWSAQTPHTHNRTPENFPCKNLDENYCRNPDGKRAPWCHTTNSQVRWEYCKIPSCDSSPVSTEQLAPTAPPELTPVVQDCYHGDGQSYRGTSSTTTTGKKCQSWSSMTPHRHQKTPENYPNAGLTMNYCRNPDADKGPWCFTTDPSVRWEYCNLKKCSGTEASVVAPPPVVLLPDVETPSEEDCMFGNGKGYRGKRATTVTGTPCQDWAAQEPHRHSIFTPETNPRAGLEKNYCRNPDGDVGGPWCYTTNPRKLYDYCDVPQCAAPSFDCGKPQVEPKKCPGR
Sequence (P00747 581-810 limits assumed): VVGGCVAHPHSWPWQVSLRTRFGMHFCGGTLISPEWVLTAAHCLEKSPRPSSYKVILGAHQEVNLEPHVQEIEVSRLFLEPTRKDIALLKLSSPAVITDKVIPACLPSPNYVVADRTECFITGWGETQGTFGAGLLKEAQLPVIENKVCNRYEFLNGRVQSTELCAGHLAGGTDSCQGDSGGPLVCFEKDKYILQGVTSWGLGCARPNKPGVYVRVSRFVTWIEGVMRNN

| Structure (SMILES) | IC50 [nM] |
| --- | --- |
| CS(=O)(=O)Nc1c(CCC2CCCCC2)ccn(CC(=O)N[C@H]2CCCN(C(=N)N)C2O)c1=O (some centres not stated) | > 2500 |
| CS(=O)(=O)Nc1c(CCCc2ccccc2)ccn(CC(=O)N[C@H]2CCCN(C(=N)N)C2O)c1=O (some centres not stated) | > 2500 |
| N=C(N)N1CCC[C@H](NC(=O)CN2CCCC(NS(=O)(=O)Cc3ccccc3)C2=O)C1O (some centres not stated) | > 2500 |
| CC(=O)Nc1c(CCc2ccccc2)ccn(CC(=O)N[C@H]2CCCN(C(=N)N)C2O)c1=O (some centres not stated) | > 2500 |
| CNS(=O)(=O)Nc1c(CCc2ccccc2)ccn(CC(=O)N[C@H]2CCCN(C(=N)N)C2O)c1=O (some centres not stated) | 250 |
| N=C(N)N1CCC[C@H](NC(=O)Cn2ccc(CCc3ccccc3)c(NS(=O)(=O)c3ccccc3)c2=O)C1O (some centres not stated) | > 2500 |
| CS(=O)(=O)Nc1c(CCc2ccccc2)ccn(CC(=O)N[C@H]2CCCN(C(=N)N)C2O)c1=O (some centres not stated) | > 2500 |
| N=C(N)N1CCC[C@H](NC(=O)Cn2ccc(CCc3ccccc3)c(NS(=O)(=O)CC(F)(F)F)c2=O)C1O (some centres not stated) | > 2500 |

target: Coagulation factor X (Homo sapiens, UniProt P00742); assay: Concentration required for the in vitro inhibitory activity against human enzyme, Factor Xa cleavage of the chromogenic substrate
Sequence (P00742 41-179 limits assumed): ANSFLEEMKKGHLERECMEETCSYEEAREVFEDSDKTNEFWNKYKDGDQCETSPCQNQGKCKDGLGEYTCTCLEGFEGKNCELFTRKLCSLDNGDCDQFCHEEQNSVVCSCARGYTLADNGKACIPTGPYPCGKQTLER
Sequence (P00742 235-488 limits assumed): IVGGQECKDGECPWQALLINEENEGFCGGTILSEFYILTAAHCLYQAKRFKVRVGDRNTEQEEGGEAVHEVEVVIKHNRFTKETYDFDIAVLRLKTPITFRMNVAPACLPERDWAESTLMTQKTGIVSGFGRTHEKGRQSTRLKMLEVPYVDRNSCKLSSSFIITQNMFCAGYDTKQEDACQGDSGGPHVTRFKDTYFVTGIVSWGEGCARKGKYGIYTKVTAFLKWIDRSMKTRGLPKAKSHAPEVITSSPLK

| Structure (SMILES) | IC50 [nM] |
| --- | --- |
| CS(=O)(=O)Nc1c(CCC2CCCCC2)ccn(CC(=O)N[C@H]2CCCN(C(=N)N)C2O)c1=O (some centres not stated) | 2500 |
| CS(=O)(=O)Nc1c(CCCc2ccccc2)ccn(CC(=O)N[C@H]2CCCN(C(=N)N)C2O)c1=O (some centres not stated) | > 2500 |
| N=C(N)N1CCC[C@H](NC(=O)CN2CCCC(NS(=O)(=O)Cc3ccccc3)C2=O)C1O (some centres not stated) | 2500 |
| CC(=O)Nc1c(CCc2ccccc2)ccn(CC(=O)N[C@H]2CCCN(C(=N)N)C2O)c1=O (some centres not stated) | > 2500 |
| CNS(=O)(=O)Nc1c(CCc2ccccc2)ccn(CC(=O)N[C@H]2CCCN(C(=N)N)C2O)c1=O (some centres not stated) | 2500 |
| N=C(N)N1CCC[C@H](NC(=O)Cn2ccc(CCc3ccccc3)c(NS(=O)(=O)c3ccccc3)c2=O)C1O (some centres not stated) | 2360 |
| CS(=O)(=O)Nc1c(CCc2ccccc2)ccn(CC(=O)N[C@H]2CCCN(C(=N)N)C2O)c1=O (some centres not stated) | > 2500 |
| N=C(N)N1CCC[C@H](NC(=O)Cn2ccc(CCc3ccccc3)c(NS(=O)(=O)CC(F)(F)F)c2=O)C1O (some centres not stated) | > 2500 |

target: Prothrombin (Homo sapiens, UniProt P00734); assay: Concentration required for the in vitro inhibitory activity against human enzyme, thrombin cleavage of the chromogenic substrate

| Structure (SMILES) | IC50 [nM] |
| --- | --- |
| CS(=O)(=O)Nc1c(CCC2CCCCC2)ccn(CC(=O)N[C@H]2CCCN(C(=N)N)C2O)c1=O (some centres not stated) | 256 |
| CS(=O)(=O)Nc1c(CCCc2ccccc2)ccn(CC(=O)N[C@H]2CCCN(C(=N)N)C2O)c1=O (some centres not stated) | 203 |
| N=C(N)N1CCC[C@H](NC(=O)CN2CCCC(NS(=O)(=O)Cc3ccccc3)C2=O)C1O (some centres not stated) | 6.2 |
| CC(=O)Nc1c(CCc2ccccc2)ccn(CC(=O)N[C@H]2CCCN(C(=N)N)C2O)c1=O (some centres not stated) | 472 |
| CNS(=O)(=O)Nc1c(CCc2ccccc2)ccn(CC(=O)N[C@H]2CCCN(C(=N)N)C2O)c1=O (some centres not stated) | 50.5 |
| N=C(N)N1CCC[C@H](NC(=O)Cn2ccc(CCc3ccccc3)c(NS(=O)(=O)c3ccccc3)c2=O)C1O (some centres not stated) | 89.1 |
| CS(=O)(=O)Nc1c(CCc2ccccc2)ccn(CC(=O)N[C@H]2CCCN(C(=N)N)C2O)c1=O (some centres not stated) | 7.95 |
| N=C(N)N1CCC[C@H](NC(=O)Cn2ccc(CCc3ccccc3)c(NS(=O)(=O)CC(F)(F)F)c2=O)C1O (some centres not stated) | 194 |
